Numbers after ± are expanded uncertainties.
Conditions: Liquid, Gas chromatography

Structure (SMILES)	vapor or sublimation pressure (308.15 K) [kPa]	vapor or sublimation pressure (318.15 K) [kPa]	vapor or sublimation pressure (328.15 K) [kPa]	vapor or sublimation pressure (338.15 K) [kPa]	vapor or sublimation pressure (348.15 K) [kPa]	vapor or sublimation pressure (358.15 K) [kPa]	vapor or sublimation pressure (368.15 K) [kPa]	vapor or sublimation pressure (378.15 K) [kPa]	vapor or sublimation pressure (388.15 K) [kPa]	vapor or sublimation pressure (398.15 K) [kPa]	vapor or sublimation pressure (408.15 K) [kPa]	vapor or sublimation pressure (418.15 K) [kPa]	vapor or sublimation pressure (428.15 K) [kPa]	vapor or sublimation pressure (438.15 K) [kPa]
C[Si]1(C)O[Si](C)(C)O[Si](C)(C)O[Si](C)(C)O[Si](C)(C)O1 [decamethylcyclopentasiloxane]	0.04458 ± 0.0095	0.09293 ± 0.02	0.1853 ± 0.039	0.3545 ± 0.075	0.6537 ± 0.14	1.165 ± 0.25	2.011 ± 0.43	–	–	–	–	–	–	–
C[Si](C)(C)O[Si](C)(C)O[Si](C)(C)O[Si](C)(C)O[Si](C)(C)O[Si](C)(C)O[Si](C)(C)O[Si](C)(C)O[Si](C)(C)O[Si](C)(C)C [docosamethyldecasiloxane]	–	–	–	–	–	–	0.0007152 ± 0.00015	0.001861 ± 0.00039	0.00461 ± 0.00098	0.01091 ± 0.0023	0.02475 ± 0.0053	0.054 ± 0.011	0.1136 ± 0.024	0.231 ± 0.049
C[Si]1(C)O[Si](C)(C)O[Si](C)(C)O[Si](C)(C)O[Si](C)(C)O[Si](C)(C)O1 [dodecamethylcyclohexasiloxane]	–	–	–	0.04948 ± 0.01	0.09584 ± 0.02	0.1789 ± 0.038	0.3228 ± 0.069	0.5646 ± 0.12	0.9595 ± 0.2	1.588 ± 0.34	2.563 ± 0.54	4.044 ± 0.86	–	–
C[Si](C)(C)O[Si](C)(C)O[Si](C)(C)O[Si](C)(C)O[Si](C)(C)C [dodecamethylpentasiloxane]	–	–	–	0.09498 ± 0.02	0.1719 ± 0.036	0.3011 ± 0.064	0.5114 ± 0.11	0.8448 ± 0.18	1.36 ± 0.29	2.137 ± 0.45	3.284 ± 0.7	–	–	–
C[Si](C)(C)O[Si](C)(C)O[Si](C)(C)O[Si](C)(C)O[Si](C)(C)O[Si](C)(C)O[Si](C)(C)O[Si](C)(C)O[Si](C)(C)C [eicosamethylnonasiloxane]	–	–	–	–	0.0004156 ± 8.8e-05	0.001098 ± 0.00023	0.002752 ± 0.00058	0.006569 ± 0.0014	0.015 ± 0.0032	0.03284 ± 0.007	0.0692 ± 0.015	0.1407 ± 0.03	0.2769 ± 0.059	0.5281 ± 0.11
C[Si](C)(C)O[Si](C)(C)O[Si](C)(C)O[Si](C)(C)O[Si](C)(C)O[Si](C)(C)O[Si](C)(C)O[Si](C)(C)O[Si](C)(C)O[Si](C)(C)O[Si](C)(C)O[Si](C)(C)C [hexacosamethyldodecasiloxane]	–	–	–	–	–	–	–	–	0.0004593 ± 9.7e-05	0.001256 ± 0.00027	0.00327 ± 0.00069	0.008134 ± 0.0017	0.01939 ± 0.0041	0.04441 ± 0.0094
C[Si]1(C)O[Si](C)(C)O[Si](C)(C)O[Si](C)(C)O[Si](C)(C)O[Si](C)(C)O[Si](C)(C)O[Si](C)(C)O1 [hexadecamethylcyclooctasiloxane]	–	–	–	0.002101 ± 0.00045	0.004912 ± 0.001	0.01095 ± 0.0023	0.02337 ± 0.005	0.04791 ± 0.01	0.09466 ± 0.02	0.1807 ± 0.038	0.3344 ± 0.071	0.6006 ± 0.13	–	–
C[Si](C)(C)O[Si](C)(C)O[Si](C)(C)O[Si](C)(C)O[Si](C)(C)O[Si](C)(C)O[Si](C)(C)C [hexadecamethylheptasiloxane]	–	–	–	0.003586 ± 0.00076	0.008232 ± 0.0017	0.01804 ± 0.0038	0.03789 ± 0.008	0.07651 ± 0.016	0.149 ± 0.032	0.2806 ± 0.06	0.5124 ± 0.11	0.909 ± 0.19	1.57 ± 0.33	2.645 ± 0.56
C[Si]1(C)O[Si](C)(C)O[Si](C)(C)O[Si](C)(C)O[Si](C)(C)O[Si](C)(C)O[Si](C)(C)O[Si](C)(C)O[Si](C)(C)O[Si](C)(C)O1 [icosamethylcyclodecasiloxane]	–	–	–	–	–	0.0008201 ± 0.00017	0.002003 ± 0.00042	0.004666 ± 0.00099	0.01041 ± 0.0022	0.02229 ± 0.0047	0.046 ± 0.0098	0.09169 ± 0.019	–	–
C[Si](C)(C)O[Si](C)(C)O[Si](C)(C)O[Si](C)(C)O[Si](C)(C)O[Si](C)(C)O[Si](C)(C)O[Si](C)(C)O[Si](C)(C)O[Si](C)(C)O[Si](C)(C)O[Si](C)(C)O[Si](C)(C)C [octacosamethyltridecasiloxane]	–	–	–	–	–	–	–	–	–	0.0004326 ± 9.2e-05	0.001205 ± 0.00026	0.003194 ± 0.00068	0.008092 ± 0.0017	0.01965 ± 0.0042
C[Si]1(C)O[Si](C)(C)O[Si](C)(C)O[Si](C)(C)O[Si](C)(C)O[Si](C)(C)O[Si](C)(C)O[Si](C)(C)O[Si](C)(C)O1 [octadecamethylcyclononasiloxane]	–	–	–	0.0004734 ± 0.0001	0.0012 ± 0.00025	0.002888 ± 0.00061	0.006628 ± 0.0014	0.01455 ± 0.0031	0.03069 ± 0.0065	0.06234 ± 0.013	0.1223 ± 0.026	0.2323 ± 0.049	–	–
C[Si](C)(C)O[Si](C)(C)O[Si](C)(C)O[Si](C)(C)O[Si](C)(C)O[Si](C)(C)O[Si](C)(C)O[Si](C)(C)C [octadecamethyloctasiloxane]	–	–	–	0.0007271 ± 0.00015	0.001846 ± 0.00039	0.004449 ± 0.00094	0.01022 ± 0.0022	0.02248 ± 0.0048	0.04747 ± 0.01	0.09653 ± 0.02	0.1896 ± 0.04	0.3605 ± 0.077	0.6654 ± 0.14	1.194 ± 0.25
C[Si]1(C)O[Si](C)(C)O[Si](C)(C)O[Si](C)(C)O1 [octamethylcyclotetrasiloxane]	0.2359 ± 0.05	0.4269 ± 0.091	0.7452 ± 0.16	1.259 ± 0.27	2.063 ± 0.44	3.289 ± 0.7	5.113 ± 1.1	–	–	–	–	–	–	–
C[Si](C)(C)O[Si](C)(C)O[Si](C)(C)O[Si](C)(C)O[Si](C)(C)O[Si](C)(C)O[Si](C)(C)O[Si](C)(C)O[Si](C)(C)O[Si](C)(C)O[Si](C)(C)C [tetracosamethylundecasiloxane]	–	–	–	–	–	–	–	0.0005391 ± 0.00011	0.001446 ± 0.00031	0.003689 ± 0.00078	0.008993 ± 0.0019	0.02101 ± 0.0045	0.04716 ± 0.01	0.102 ± 0.022
